Results: patent publication US4916130A, “Platelet agglutination-inhibiting agent” (Green Cross Corporation, priority 1987, dated 1990)
pIC50: −log10 of the molar value.

Legend:
[1] = test system: platelets (platelet-rich plasma), agglutination induced by arachidonic acid; assay: Inhibition of platelet agglutination induced by arachidonic acid (rat PRP, aggligometer); type: cell-based; details: 37° C., arachidonic acid 1 mM, 50% effective concentration from onset time of agglutination vs control group
Experimental: (§1) Blood was collected from the abdominal aorta of a sacrificed rat. The obtained blood was then mixed with a solution of 3.9% sodium citrate at a ratio of one part by volume of sodium citrate solution to nine parts by volume of the blood. The mixture was […] at 116×g for 10 minutes to give a platelet-rich plasma (PRP). The supernatant was further centrifuged at 1,638×g for 10 minutes to give a platelet-poor plasma (PPP). The PRP was diluted with the PPP so as to give a platelet concentration of […].
(§2) The agglutination of platelets was determined with an aggligometer (RINKADENKI HUSM type). Sample solutions of 25 μl were obtained by dissolving each test compound in methanol and adding the resulting solution to a physiological saline solution so as to give a final methanol concentration of 1%. These sample solutions were then added to 225 μl of PRP preliminarily maintained at 37° C. while stirring at 800 rpm. Three minutes thereafter, 50 μl of an agglutination inducer was added thereto while continuously stirring.
Arachidonic acid, when employed as the agglutination inducer, was added at a concentration of 1 mM. The 50% effective concentration of each test compound was calculated by comparing the onset time from the addition of the arachidonic acid to the initiation of the agglutination with that of the control group.

[2] = test system: platelets (platelet-rich plasma), agglutination induced by collagen; assay: Inhibition of platelet agglutination induced by collagen (rat PRP, aggligometer); type: cell-based; details: 37° C., collagen 0.14 mg/ml, from inhibition ratio for maximum thrombotic agglutination
Experimental: as §1, §2
Collagen, when employed as the agglutination inducer, was added at a concentration of 0.14 mg/ml. The 50% inhibition concentration of each test compound was calculated from the inhibition ratio thereof for the maximum thrombotic agglutination.

How did the pIC50 [1] turn out when `CCC=CC(=O)NCCSSCCNC(=O)C=CCC` [Compound 1, [SCH2 CH2 NH--COCH=CHCH2 CH3]2] was run?
Its pIC50 is 4.89.

What about the pIC50 [2] of the same compound?
Its pIC50 is 4.82.

What does the source list for `CCCC=CC(=O)NCCSSCCNC(=O)C=CCCC` [Compound 2, [SCH2 CH2 NH--COCH=CH(CH2)2 CH3]2]?
pIC50 [1]: 5.17; pIC50 [2]: 5.40

`CCCCC=CC(=O)NCCSSCCNC(=O)C=CCCCC` [Compound 3, [SCH2 CH2 NH--COCH=CH(CH2)3 CH3]2] was tested. Which pIC50 [1] did it give?
Its pIC50 is 4.77.

And the pIC50 [2]?
The pIC50 was 4.59.

What does the source list for `CCCCCC=CC(=O)NCCSSCCNC(=O)C=CCCCCC` [Compound 4, [SCH2 CH2 NH--COCH=CH(CH2)4 CH3]2]?
pIC50 [1]: 3.87; pIC50 [2]: 3.54
